From patent publication US9199946B2, “Pyrimidinone carboxamide inhibitors of endothelial lipase” (BRISTOL-MYERS SQUIBB COMPANY, priority 2012, dated 2015) come the findings set out here.

By IC50 is commonly meant the midpoint of a concentration-inhibition curve.

Where only a bound is given, the exact number is not on record here.

One experiment concerns the target T1, Endothelial lipase (EL) (Homo sapiens, UniProt Q9Y5X9).
T1 construct: HT-1080 cells, which were transformed by RAGE technology (Athersys) to overexpress endogenous EL; endogenous in cells; conditioned medium used as the enzyme source
T1 sequence (Q9Y5X9 21-500): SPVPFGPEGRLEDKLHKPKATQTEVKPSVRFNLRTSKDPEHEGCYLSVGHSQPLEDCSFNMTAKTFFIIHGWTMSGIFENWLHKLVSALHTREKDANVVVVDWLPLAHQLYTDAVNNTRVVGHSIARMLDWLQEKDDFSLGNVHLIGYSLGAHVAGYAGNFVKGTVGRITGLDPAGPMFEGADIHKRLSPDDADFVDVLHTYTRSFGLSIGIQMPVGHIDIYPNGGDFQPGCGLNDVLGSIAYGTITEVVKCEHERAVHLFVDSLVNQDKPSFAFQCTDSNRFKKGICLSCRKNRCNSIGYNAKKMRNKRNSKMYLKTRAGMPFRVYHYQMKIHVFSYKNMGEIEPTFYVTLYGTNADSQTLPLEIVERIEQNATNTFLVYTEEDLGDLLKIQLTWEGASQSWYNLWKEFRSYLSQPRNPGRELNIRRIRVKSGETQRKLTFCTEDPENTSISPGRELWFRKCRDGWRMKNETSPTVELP
Nature of the experiment: Endothelial lipase (EL) enzymatic assay with fluorescent substrate A10070 in DMPG vesicles. The format is biochemical. Conditions: conditioned media from HT-1080 cells overexpressing endogenous EL; 20 min preincubation at 37° C.; read-out: EL IC50. The method, boiled down: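 EL activity was followed as a fluorescence rate (488/530 nm, reads every 20 s for 10 min, linear slope) on A10070 doped at 0.05 mole fraction into sonicated DMPG vesicles. Compound was first incubated 20 min at 37 °C, pH 8.0 HEPES/CaCl2 buffer, with conditioned media from EL-overexpressing HT-1080 cells.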
On to `O=C(N[C@H]1CCCc2ccccc21)c1[nH]c(=O)[nH]c(=O)c1OCCO` [Example 299, (S)-5-(2-Hydroxyethoxy)-2,6-dioxo-N-(1,2,3,4-tetrahydronaphthalen-1-yl)-1,2,3,6-tetrahydropyrimidine-4-carboxamide], for which the IC50 was determined as 9.56 µM.

The same experiment, now with this note: range observed in the EL assay; read-out: EL IC50 values.
On to `O=C(N[C@@H]1CC[C@@H](C(=O)Nc2cnn(Cc3ccccc3)c2)C1)c1[nH]c(=O)[nH]c(=O)c1O` [Example 295, N-((1R,3R)-3-(1-benzyl-1H-pyrazol-4-ylcarbamoyl)cyclopentyl)-5-hydroxy-2,6-dioxo-1,2,3,6-tetrahydropyrimidine-4-carboxamide], for which the IC50 is not above 10 µM. Take `O=C(N[C@@H]1CC[C@@H](C(=O)NCc2nc3ccccc3s2)C1)c1[nH]c(=O)[nH]c(=O)c1O` [Example 296, N-((1R,3R)-3-(benzo[d]thiazol-2-ylmethylcarbamoyl)cyclopentyl)-5-hydroxy-2,6-dioxo-1,2,3,6-tetrahydropyrimidine-4-carboxamide]: the IC50 is not above 10 µM.

On to `O=C(N[C@@H]1CC[C@@H](C(=O)N[C@H]2CC[C@@H](c3ccccc3)CC2)C1)c1[nH]c(=O)[nH]c(=O)c1O` [Example 297, 5-hydroxy-2,6-dioxo-N-((1R,3R)-3-((1s,4S)-4-phenylcyclohexylcarbamoyl)cyclopentyl)-1,2,3,6-tetrahydropyrimidine-4-carboxamide], for which the IC50 is not above 10 µM.

Consider `O=C(N[C@@H]1CC[C@@H](C(=O)N[C@H]2CCCc3ccccc32)C1)c1[nH]c(=O)[nH]c(=O)c1O` [Example 298, 5-hydroxy-2,6-dioxo-N-((1R,3R)-3-((S)-1,2,3,4-tetrahydronaphthalen-1-ylcarbamoyl)cyclopentyl)-1,2,3,6-tetrahydropyrimidine-4-carboxamide], for which the IC50 is not above 10 µM. Still for that read-out and setting: next, `O=C(N[C@H]1CCCc2ccccc21)c1[nH]c(=O)[nH]c(=O)c1OCCO` [Example 299, (S)-5-(2-Hydroxyethoxy)-2,6-dioxo-N-(1,2,3,4-tetrahydronaphthalen-1-yl)-1,2,3,6-tetrahydropyrimidine-4-carboxamide]: not above 10 µM.
